In the supplement of paper PMC11208160:

Assay: recombinant UMI read abundance after kanamycin selection (control-corrected) (log10(CPM+1)); higher = more efficient recombination; extreme values may be limits of the assay; sequences stand for … in AGTGCAGAGAAAATCGGCCAGTTTTCTCTGCCTGCAGTCCGCATGCCGTGGGACCCCTTGGGTTCTAACCTGTTGCCTAGATTTATGCAGCGGACTGCCTTTCTCCCAAAGTGATAAACCGG…AGGTTGGTTTCACT; site = the 11-nt donor
How it was run: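 Each donor and donor-binding-loop pair was tracked by a 12-nt UMI on a plasmid carrying a promoterless kanamycin gene. With a second plasmid supplying a fixed target and T7-inducible IS621 bridge recombinase, the pool was plated in Escherichia coli on IPTG (0.07 mM) plus kanamycin or unselected. Sequencing of recombinant UMIs across the donor–target junction gave counts expressed as log10(CPM+1) after replicate averaging and control-derived scaling.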
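Note: IS621 bridge recombinase in Escherichia coli cells against a fixed T5 target plasmid.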

First: GTTCTCTCATGGACCGGTTTTCCCGGTAATCCGTATTTGTA (site TTTCTCTCTTA)
Second: AAGCACGCATGGACCGGTTTTCCCGGTAATCCGTATTTGCG (site AAGCACGCTCG)
The “recombinant UMI read abundance (log10)” value of the first is lower: 0.822 for the first, 1.44 for the second.

First: GTGGAGGCATGGACCGGTTTTCCCGGTAATCCGTATTTGTG (site GTGGAGGCTCG)
Second: TAGCATACATGGACCGGTTTTCCCGGTAATCCGTATTTGCA (site TAGAATACTTG)
The “recombinant UMI read abundance (log10)” value of the first is higher: 1.53 for the first, 0 for the second.

“GGGGAACCATGGACCGGTTTTCCCGGTAATCCGTATTTGAT (site CGGGAACCTAT)” and “TCTTCCCCATGGACCGGTTTTCCCGGTAATCCGTATTTGTA (site TGTTCCCCTTA)” are within 0.2 log units of each other in “recombinant UMI read abundance (log10)” value: 0 for the first, 0.00596 for the second.

First: GTTAGAGCATGGACCGGTTTTCCCGGTAATCCGTATTTGCA (site GTTCGAGCTTG)
Second: CGAGCATCATGGACCGGTTTTCCCGGTAATCCGTATTTGTT (site CGAGCATCTAA)
The “recombinant UMI read abundance (log10)” value of the first is lower: 1.01 for the first, 2.61 for the second.

Going from “TAGCTAGCATGGACCGGTTTTCCCGGTAATCCGTATTTGAG (site TAGCTAGCTAT)” to “GGATCGACATGGACCGGTTTTCCCGGTAATCCGTATTTGTT (site TGATCGACTAA)”, the “recombinant UMI read abundance (log10)” value falls from 0.457 to 0.00972.

Compared with “ACAGTTCCATGGACCGGTTTTCCCGGTAATCCGTATTTGAA (site ACAGTTCCTTT)”, “GGCCATCCATGGACCGGTTTTCCCGGTAATCCGTATTTGTT (site GGCCACCCTAA)” is lower in “recombinant UMI read abundance (log10)” value: 1.36 for the first, 0.0125 for the second.

“AGCTCAGCATGGACCGGTTTTCCCGGTAATCCGTATTTGGG (site AGCTCATCTCC)” and “GGATCGACATGGACCGGTTTTCCCGGTAATCCGTATTTGTT (site CGATCGACTAA)” are within 0.2 log units of each other in “recombinant UMI read abundance (log10)” value: 0.0384 for the first, 0.00751 for the second.

Going from “CGATCTTCATGGACCGGTTTTCCCGGTAATCCGTATTTGTT (site CGATCTTCTAA)” to “CCCTATCCATGGACCGGTTTTCCCGGTAATCCGTATTTGCC (site CCCTACCCTGG)”, the “recombinant UMI read abundance (log10)” value falls from 0.751 to 0.

Compared with “GGGTAGACATGGACCGGTTTTCCCGGTAATCCGTATTTGCC (site GGTTAGACTGG)”, “TTTGCGGCATGGACCGGTTTTCCCGGTAATCCGTATTTGCT (site TTTGCGTCTAG)” is lower in “recombinant UMI read abundance (log10)” value: 0.949 for the first, 0.00651 for the second.

Compared with “GGAGTGGCATGGACCGGTTTTCCCGGTAATCCGTATTTGGT (site GGATTGGCTAC)”, “CGCTTGGCATGGACCGGTTTTCCCGGTAATCCGTATTTGGA (site CGCTTGGCTTC)” is higher in “recombinant UMI read abundance (log10)” value: 0.458 for the first, 0.824 for the second.

Compared with “GTACTATCATGGACCGGTTTTCCCGGTAATCCGTATTTGGC (site GTACTATCTGC)”, “TGACCCGCATGGACCGGTTTTCCCGGTAATCCGTATTTGAC (site CAGATACCTCC)” is lower in “recombinant UMI read abundance (log10)” value: 3.19 for the first, 0.00655 for the second.

“GCTTTCCCATGGACCGGTTTTCCCGGTAATCCGTATTTGAT (site GCTTGCCCTAT)” and “TTTCCGGCATGGACCGGTTTTCCCGGTAATCCGTATTTGCT (site TTTACGGCTAG)” are within 0.2 log units of each other in “recombinant UMI read abundance (log10)” value: 0.00235 for the first, 0.0335 for the second.

“TATGTGGCATGGACCGGTTTTCCCGGTAATCCGTATTTGTG (site TATATGGCTCA)” and “CGGATTCCATGGACCGGTTTTCCCGGTAATCCGTATTTGCT (site CGGAATCCTAA)” are within 0.2 log units of each other in “recombinant UMI read abundance (log10)” value: 0.00536 for the first, 0 for the second.

“GTTCTAGCATGGACCGGTTTTCCCGGTAATCCGTATTTGCA (site GTTCGAGCTTG)” and “TGGCCGGCATGGACCGGTTTTCCCGGTAATCCGTATTTGGG (site TGGCCGGCTAC)” are within 0.2 log units of each other in “recombinant UMI read abundance (log10)” value: 0 for the first, 0.0282 for the second.

“TGGACCTCATGGACCGGTTTTCCCGGTAATCCGTATTTGAG (site TGGACCTCTCT)” and “GTGGAGGCATGGACCGGTTTTCCCGGTAATCCGTATTTGTG (site GTTGAGGCTCA)” are within 0.2 log units of each other in “recombinant UMI read abundance (log10)” value: 0.96 for the first, 0.792 for the second.

“TTTGCGGCATGGACCGGTTTTCCCGGTAATCCGTATTTGCT (site CTTGCGGCTAG)” and “CTTGAAACATGGACCGGTTTTCCCGGTAATCCGTATTTGCA (site CTCGAAACTTG)” are within 0.2 log units of each other in “recombinant UMI read abundance (log10)” value: 0.00458 for the first, 0.00453 for the second.

“TACTTGACATGGACCGGTTTTCCCGGTAATCCGTATTTGCT (site TACATGACTAG)” and “GAGCTCACATGGACCGGTTTTCCCGGTAATCCGTATTTGAT (site GAGCTCCCTAT)” are within 0.2 log units of each other in “recombinant UMI read abundance (log10)” value: 0.0307 for the first, 0.00734 for the second.

“AGATTCCCATGGACCGGTTTTCCCGGTAATCCGTATTTGTG (site AGTTTCCCTCA)” and “GATTATCCATGGACCGGTTTTCCCGGTAATCCGTATTTGCC (site GATTATCCTCG)” are within 0.2 log units of each other in “recombinant UMI read abundance (log10)” value: 0.0189 for the first, 0 for the second.

Compared with “CGTAGAACATGGACCGGTTTTCCCGGTAATCCGTATTTGTT (site CGTCGAACTAA)”, “CTAGTATCATGGACCGGTTTTCCCGGTAATCCGTATTTGAC (site CTAGTATCTGG)” is higher in “recombinant UMI read abundance (log10)” value: 0.018 for the first, 1.48 for the second.

“CTCGCACCATGGACCGGTTTTCCCGGTAATCCGTATTTGTC (site CTCGCACCTGA)” and “TTTGCGGCATGGACCGGTTTTCCCGGTAATCCGTATTTGCT (site TTTGCGGCTAT)” are within 0.2 log units of each other in “recombinant UMI read abundance (log10)” value: 0 for the first, 0.0119 for the second.

“GAATGGCCATGGACCGGTTTTCCCGGTAATCCGTATTTGCG (site GAATGGCCTTG)” and “GGTCCGACATGGACCGGTTTTCCCGGTAATCCGTATTTGTA (site GGTCCCACTTA)” are within 0.2 log units of each other in “recombinant UMI read abundance (log10)” value: 0 for the first, 0.00256 for the second.

Compared with “GTGGCACCATGGACCGGTTTTCCCGGTAATCCGTATTTGCA (site GTGGCACCTTG)”, “ATAAGCCCATGGACCGGTTTTCCCGGTAATCCGTATTTGAC (site ATAAGCCCTGT)” is higher in “recombinant UMI read abundance (log10)” value: 0 for the first, 2.3 for the second.

“ATTGTTCCATGGACCGGTTTTCCCGGTAATCCGTATTTGGT (site CTTGTTCCTAC)” and “CACGTCACATGGACCGGTTTTCCCGGTAATCCGTATTTGGG (site CATGTCACTCC)” are within 0.2 log units of each other in “recombinant UMI read abundance (log10)” value: 0 for the first, 0.012 for the second.

First: GGTGCATCATGGACCGGTTTTCCCGGTAATCCGTATTTGCT (site GGTGCATCTAG)
Second: ACAGATCCATGGACCGGTTTTCCCGGTAATCCGTATTTGAC (site ACACATCCTGT)
The “recombinant UMI read abundance (log10)” value of the first is higher: 1.92 for the first, 0 for the second.

Going from “GCTACAGCATGGACCGGTTTTCCCGGTAATCCGTATTTGCC (site GCTACTGCTGG)” to “GGATGATCATGGACCGGTTTTCCCGGTAATCCGTATTTGCT (site GGATGATCTAG)”, the “recombinant UMI read abundance (log10)” value rises from 0 to 2.36.

Going from “CTGGAATCATGGACCGGTTTTCCCGGTAATCCGTATTTGCA (site CTGGAAGCTTG)” to “CAGCAATCATGGACCGGTTTTCCCGGTAATCCGTATTTGGT (site CAGCAATCTAC)”, the “recombinant UMI read abundance (log10)” value rises from 0 to 2.73.

First: GTTGTTCCATGGACCGGTTTTCCCGGTAATCCGTATTTGGT (site GTTATTCCTAC)
Second: TCAGAGACATGGACCGGTTTTCCCGGTAATCCGTATTTGCG (site TCAGAGACTCG)
The “recombinant UMI read abundance (log10)” value of the first is lower: 0.00427 for the first, 2.3 for the second.

Going from “TTATCATCATGGACCGGTTTTCCCGGTAATCCGTATTTGAG (site TTATCATCTCT)” to “TGTCCCCCATGGACCGGTTTTCCCGGTAATCCGTATTTGTA (site TGTTCCCCTTA)”, the “recombinant UMI read abundance (log10)” value falls from 0.385 to 0.0128.

Going from “ATTTATGCATGGACCGGTTTTCCCGGTAATCCGTATTTGGA (site AATTATGCTTC)” to “CAATGCTCATGGACCGGTTTTCCCGGTAATCCGTATTTGAC (site CAATGCTCTCT)”, the “recombinant UMI read abundance (log10)” value falls from 0.379 to 0.051.

First: CTACTAACATGGACCGGTTTTCCCGGTAATCCGTATTTGGC (site CTACTAACTAC)
Second: GCTGACGCATGGACCGGTTTTCCCGGTAATCCGTATTTGAT (site GCTGACGCTAT)
The “recombinant UMI read abundance (log10)” value of the first is lower: 0.561 for the first, 1.53 for the second.

“CCTAAAGCATGGACCGGTTTTCCCGGTAATCCGTATTTGAT (site CCTAAAGCTAT)” and “AGCTCAGCATGGACCGGTTTTCCCGGTAATCCGTATTTGGG (site CGCTCAGCTCC)” are within 0.2 log units of each other in “recombinant UMI read abundance (log10)” value: 0.14 for the first, 0.299 for the second.

Going from “GGAGTGACATGGACCGGTTTTCCCGGTAATCCGTATTTGGT (site GGAGTGACTAC)” to “ATTGCGGCATGGACCGGTTTTCCCGGTAATCCGTATTTGCT (site GTTGCGGCTAG)”, the “recombinant UMI read abundance (log10)” value falls from 0.736 to 0.0081.

Going from “GGGGCAGCATGGACCGGTTTTCCCGGTAATCCGTATTTGCA (site GGGGCAGCTTG)” to “GCTACTGCATGGACCGGTTTTCCCGGTAATCCGTATTTGCT (site GCTACTGCTAG)”, the “recombinant UMI read abundance (log10)” value falls from 2.13 to 1.64.

First: GTCTGCACATGGACCGGTTTTCCCGGTAATCCGTATTTGTA (site GTGTGCACTTA)
Second: ATAACTCCATGGACCGGTTTTCCCGGTAATCCGTATTTGCC (site ATAACTCCTGG)
The “recombinant UMI read abundance (log10)” value of the first is lower: 0.0326 for the first, 1.64 for the second.

First: GTTGTTCCATGGACCGGTTTTCCCGGTAATCCGTATTTGTT (site GTTGTTCCTAA)
Second: TGTACACCATGGACCGGTTTTCCCGGTAATCCGTATTTGAT (site TGTACACCTCT)
The “recombinant UMI read abundance (log10)” value of the first is higher: 0.42 for the first, 0 for the second.

Compared with “CAGTCGTCATGGACCGGTTTTCCCGGTAATCCGTATTTGGG (site CAGTCGCCTCC)”, “GAGGGTTCATGGACCGGTTTTCCCGGTAATCCGTATTTGCG (site GAGGGTTCTCG)” is higher in “recombinant UMI read abundance (log10)” value: 0.0207 for the first, 2.63 for the second.

“TAGTCTGCATGGACCGGTTTTCCCGGTAATCCGTATTTGAG (site TAGTCTGCTCT)” and “GTAGTCCCATGGACCGGTTTTCCCGGTAATCCGTATTTGCG (site GTAGTCACTCG)” are within 0.2 log units of each other in “recombinant UMI read abundance (log10)” value: 0.338 for the first, 0.251 for the second.

With “CTAGTATCATGGACCGGTTTTCCCGGTAATCCGTATTTGAC (site GTAGTATCTGC)” the “recombinant UMI read abundance (log10)” value was 0.
